Columns and labels:
[1] = target: Cyclin-dependent kinase-like 5 (Homo sapiens) (UniProt O76039); assay: Inhibition of wild-type human partial length CDKL5 (M1 to S337 residues) expressed in mammalian expression system at 1 uM by Kinomescan method relative to control
[2] = target: Serine/threonine-protein kinase Chk1 (Homo sapiens) (UniProt O14757); assay: Inhibition of wild-type human partial length CHEK1 (M1 to G289 residues) expressed in bacterial expression system at 1 uM by Kinomescan method relative to control
Sequence of Serine/threonine-protein kinase Chk1 (Homo sapiens) (O14757 whole entry, the tested form may be a part): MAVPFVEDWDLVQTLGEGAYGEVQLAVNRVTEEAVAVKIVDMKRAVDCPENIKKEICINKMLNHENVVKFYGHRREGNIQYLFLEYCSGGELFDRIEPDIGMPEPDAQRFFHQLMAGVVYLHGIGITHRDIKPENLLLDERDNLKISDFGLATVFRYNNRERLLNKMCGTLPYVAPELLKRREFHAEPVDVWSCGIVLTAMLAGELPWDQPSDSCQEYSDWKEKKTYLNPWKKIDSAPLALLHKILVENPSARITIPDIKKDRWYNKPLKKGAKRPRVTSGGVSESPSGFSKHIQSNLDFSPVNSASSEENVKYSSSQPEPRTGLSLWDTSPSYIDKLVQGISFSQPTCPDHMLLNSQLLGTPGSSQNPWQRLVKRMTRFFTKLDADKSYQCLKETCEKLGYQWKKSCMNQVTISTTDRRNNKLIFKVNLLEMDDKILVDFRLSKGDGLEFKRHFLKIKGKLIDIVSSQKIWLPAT

[3] = target: Citron Rho-interacting kinase (Homo sapiens) (UniProt O14578); assay: Inhibition of wild-type human partial length CIT (M68 to E432 residues) expressed in bacterial expression system at 1 uM by Kinomescan method relative to control
Sequence of Citron Rho-interacting kinase (Homo sapiens) (O14578 whole entry, the tested form may be a part): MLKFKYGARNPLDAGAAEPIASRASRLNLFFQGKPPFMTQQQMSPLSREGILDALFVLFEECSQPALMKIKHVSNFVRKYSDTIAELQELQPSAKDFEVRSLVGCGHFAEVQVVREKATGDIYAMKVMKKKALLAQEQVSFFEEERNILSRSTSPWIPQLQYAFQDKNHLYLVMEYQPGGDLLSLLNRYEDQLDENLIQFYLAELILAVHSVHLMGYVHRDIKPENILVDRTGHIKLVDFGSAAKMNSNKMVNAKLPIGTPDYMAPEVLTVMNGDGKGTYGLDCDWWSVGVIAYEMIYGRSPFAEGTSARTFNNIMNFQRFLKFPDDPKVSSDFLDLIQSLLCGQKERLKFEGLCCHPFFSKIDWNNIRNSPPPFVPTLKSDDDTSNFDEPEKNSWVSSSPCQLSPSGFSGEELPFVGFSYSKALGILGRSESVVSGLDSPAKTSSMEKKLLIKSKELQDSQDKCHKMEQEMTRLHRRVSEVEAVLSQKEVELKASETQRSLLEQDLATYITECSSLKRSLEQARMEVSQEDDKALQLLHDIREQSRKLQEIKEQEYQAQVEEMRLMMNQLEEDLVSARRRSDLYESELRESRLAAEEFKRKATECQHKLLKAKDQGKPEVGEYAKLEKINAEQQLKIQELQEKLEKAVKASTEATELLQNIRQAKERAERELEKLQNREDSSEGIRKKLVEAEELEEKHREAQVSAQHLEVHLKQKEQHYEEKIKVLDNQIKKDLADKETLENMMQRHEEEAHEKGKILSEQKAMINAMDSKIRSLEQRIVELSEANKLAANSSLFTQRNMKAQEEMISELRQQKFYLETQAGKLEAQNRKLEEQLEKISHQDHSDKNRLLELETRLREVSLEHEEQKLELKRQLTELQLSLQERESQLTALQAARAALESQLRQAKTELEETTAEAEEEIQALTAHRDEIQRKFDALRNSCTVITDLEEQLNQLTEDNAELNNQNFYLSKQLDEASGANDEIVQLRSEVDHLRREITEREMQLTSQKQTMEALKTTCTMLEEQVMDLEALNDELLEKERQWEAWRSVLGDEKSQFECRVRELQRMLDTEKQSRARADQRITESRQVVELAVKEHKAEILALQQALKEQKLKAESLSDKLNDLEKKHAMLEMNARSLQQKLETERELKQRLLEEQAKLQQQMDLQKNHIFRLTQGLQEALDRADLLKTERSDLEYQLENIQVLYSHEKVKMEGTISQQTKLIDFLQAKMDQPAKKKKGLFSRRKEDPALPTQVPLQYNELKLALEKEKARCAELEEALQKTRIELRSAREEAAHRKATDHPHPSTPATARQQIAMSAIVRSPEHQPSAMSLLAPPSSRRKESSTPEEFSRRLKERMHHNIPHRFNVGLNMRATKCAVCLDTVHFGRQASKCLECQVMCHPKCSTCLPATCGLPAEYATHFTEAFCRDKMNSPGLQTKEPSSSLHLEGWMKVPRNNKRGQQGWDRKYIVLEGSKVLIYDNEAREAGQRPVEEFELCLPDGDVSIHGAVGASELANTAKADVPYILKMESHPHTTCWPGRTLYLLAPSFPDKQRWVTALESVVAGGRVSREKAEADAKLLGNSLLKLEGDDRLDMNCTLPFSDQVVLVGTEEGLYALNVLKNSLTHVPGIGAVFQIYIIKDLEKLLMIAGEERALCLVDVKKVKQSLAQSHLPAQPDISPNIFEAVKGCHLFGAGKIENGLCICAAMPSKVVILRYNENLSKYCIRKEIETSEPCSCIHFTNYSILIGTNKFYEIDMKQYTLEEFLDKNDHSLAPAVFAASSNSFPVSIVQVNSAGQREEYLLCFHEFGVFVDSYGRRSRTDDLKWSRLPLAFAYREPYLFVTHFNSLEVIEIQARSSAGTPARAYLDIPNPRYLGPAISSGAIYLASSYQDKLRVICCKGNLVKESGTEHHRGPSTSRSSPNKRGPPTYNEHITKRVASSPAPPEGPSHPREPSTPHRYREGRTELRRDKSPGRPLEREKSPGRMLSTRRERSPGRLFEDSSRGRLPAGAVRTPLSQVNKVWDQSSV

[4] = target: Receptor tyrosine-protein kinase erbB-3 (Homo sapiens) (UniProt P21860); assay: Inhibition of wild-type human partial length ERBB3 (G684 to A987 residues) expressed in mammalian expression system at 1 uM by Kinomescan method relative to control
[5] = target: Fibroblast growth factor receptor 4 (Homo sapiens) (UniProt P22455); assay: Inhibition of wild-type human partial length FGFR4 (G402 to E713 residues) expressed in bacterial expression system at 1 uM by Kinomescan method relative to control
[6] = system: Receptor-type tyrosine-protein kinase FLT3 (Homo sapiens), P36888 [D835H]; assay: Inhibition of human partial length FLT3 D835H mutant (V592 to Y969 residues) expressed in bacterial expression system at 1 uM by Kinomescan method relative to control
[7] = target: Leukocyte tyrosine kinase receptor (Homo sapiens) (UniProt P29376); assay: Inhibition of wild-type human partial length LTK (P422 to S744 residues) expressed in bacterial expression system at 1 uM by Kinomescan method relative to control
[8] = target: Serine/threonine-protein kinase MAK (Homo sapiens) (UniProt P20794); assay: Inhibition of wild-type human partial length MAK (M1 to P314 residues) expressed in bacterial expression system at 1 uM by Kinomescan method relative to control
Sequence of Serine/threonine-protein kinase MAK (Homo sapiens) (P20794 whole entry, the tested form may be a part): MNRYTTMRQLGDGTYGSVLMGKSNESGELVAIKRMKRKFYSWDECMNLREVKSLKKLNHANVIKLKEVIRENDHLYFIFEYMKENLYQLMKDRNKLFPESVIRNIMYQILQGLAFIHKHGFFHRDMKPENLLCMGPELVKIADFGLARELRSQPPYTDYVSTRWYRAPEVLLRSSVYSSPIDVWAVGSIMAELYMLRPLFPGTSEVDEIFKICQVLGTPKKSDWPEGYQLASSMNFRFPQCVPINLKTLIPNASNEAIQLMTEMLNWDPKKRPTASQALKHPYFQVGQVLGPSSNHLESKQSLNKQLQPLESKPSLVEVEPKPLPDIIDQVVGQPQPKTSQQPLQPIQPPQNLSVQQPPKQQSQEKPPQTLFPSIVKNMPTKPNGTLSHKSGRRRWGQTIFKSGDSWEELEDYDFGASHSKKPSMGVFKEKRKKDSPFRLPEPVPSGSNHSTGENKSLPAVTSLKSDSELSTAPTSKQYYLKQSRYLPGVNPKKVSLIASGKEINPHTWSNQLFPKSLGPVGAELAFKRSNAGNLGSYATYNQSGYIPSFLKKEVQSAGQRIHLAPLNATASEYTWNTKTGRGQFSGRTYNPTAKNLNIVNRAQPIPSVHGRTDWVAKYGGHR

[9] = target: Mitogen-activated protein kinase kinase kinase 4 (Homo sapiens) (UniProt Q9Y6R4); assay: Inhibition of wild-type human partial length MAP3K4 (G1319 to E1608 residues) expressed in bacterial expression system at 1 uM by Kinomescan method relative to control
[10] = target: Mitogen-activated protein kinase kinase kinase kinase 4 (Homo sapiens) (UniProt O95819); assay: Inhibition of wild-type human partial length MAP4K4 (M1 to R310 residues) expressed in bacterial expression system at 1 uM by Kinomescan method relative to control
[11] = target: Myosin-IIIa (Homo sapiens) (UniProt Q8NEV4); assay: Inhibition of wild-type human partial length MYO3A (M1 to K338 residues) expressed in bacterial expression system at 1 uM by Kinomescan method relative to control
[12] = system: Phosphatidylinositol 4,5-bisphosphate 3-kinase catalytic subunit alpha isoform (Homo sapiens), P42336 [I800L]; assay: Inhibition of human partial length PIK3CA I800L mutant (R108 to N1068 residues) expressed in mammalian expression system at 1 uM by Kinomescan method relative to control
[13] = target: 1-phosphatidylinositol 3-phosphate 5-kinase (Homo sapiens) (UniProt Q9Y2I7); assay: Inhibition of wild-type human partial length PIKFYVE (F1512 to C2098 residues) expressed in mammalian expression system at 1 uM by Kinomescan method relative to control
[14] = target: Serine/threonine-protein kinase BRSK1 (Homo sapiens) (UniProt Q8TDC3); assay: Inhibition of wild-type human partial length BRSK1 (M1 to E754 residues) expressed in bacterial expression system at 10 uM by Kinomescan method relative to control
[15] = target: Casein kinase I isoform gamma-1 (Homo sapiens) (UniProt Q9HCP0); assay: Inhibition of wild-type human partial length CSNK1G1 (T15 to S353 residues) expressed in bacterial expression system at 10 uM by Kinomescan method relative to control
[16] = target: Inhibitor of nuclear factor kappa-B kinase subunit epsilon (Homo sapiens) (UniProt Q14164); assay: Inhibition of wild-type human full length IKK-epsilon (M1 to V716 residues) expressed in mammalian expression system at 10 uM by Kinomescan method relative to control
[17] = target: LIM domain kinase 1 (Homo sapiens) (UniProt P53667); assay: Inhibition of wild-type human full length LIMK1 (M1 to D647 residues) expressed in bacterial expression system at 10 uM by Kinomescan method relative to control
[18] = target: Serine/threonine-protein kinase MRCK alpha (Homo sapiens) (UniProt Q5VT25); assay: Inhibition of wild-type human partial length MRCKA (L57 to V418 residues) expressed in bacterial expression system at 10 uM by Kinomescan method relative to control
[19] = target: Myosin light chain kinase, smooth muscle (Homo sapiens) (UniProt Q15746); assay: Inhibition of wild-type human full length MYLK (M854 to E1845 residues) expressed in mammalian expression system at 10 uM by Kinomescan method relative to control
[20] = target: Serine/threonine-protein kinase Nek10 (Homo sapiens) (UniProt Q6ZWH5); assay: Inhibition of wild-type human partial length NEK10 (L488 to R809 residues) expressed in mammalian expression system at 10 uM by Kinomescan method relative to control
Sequence of Serine/threonine-protein kinase Nek10 (Homo sapiens) (Q6ZWH5 whole entry, the tested form may be a part, canonical isoform): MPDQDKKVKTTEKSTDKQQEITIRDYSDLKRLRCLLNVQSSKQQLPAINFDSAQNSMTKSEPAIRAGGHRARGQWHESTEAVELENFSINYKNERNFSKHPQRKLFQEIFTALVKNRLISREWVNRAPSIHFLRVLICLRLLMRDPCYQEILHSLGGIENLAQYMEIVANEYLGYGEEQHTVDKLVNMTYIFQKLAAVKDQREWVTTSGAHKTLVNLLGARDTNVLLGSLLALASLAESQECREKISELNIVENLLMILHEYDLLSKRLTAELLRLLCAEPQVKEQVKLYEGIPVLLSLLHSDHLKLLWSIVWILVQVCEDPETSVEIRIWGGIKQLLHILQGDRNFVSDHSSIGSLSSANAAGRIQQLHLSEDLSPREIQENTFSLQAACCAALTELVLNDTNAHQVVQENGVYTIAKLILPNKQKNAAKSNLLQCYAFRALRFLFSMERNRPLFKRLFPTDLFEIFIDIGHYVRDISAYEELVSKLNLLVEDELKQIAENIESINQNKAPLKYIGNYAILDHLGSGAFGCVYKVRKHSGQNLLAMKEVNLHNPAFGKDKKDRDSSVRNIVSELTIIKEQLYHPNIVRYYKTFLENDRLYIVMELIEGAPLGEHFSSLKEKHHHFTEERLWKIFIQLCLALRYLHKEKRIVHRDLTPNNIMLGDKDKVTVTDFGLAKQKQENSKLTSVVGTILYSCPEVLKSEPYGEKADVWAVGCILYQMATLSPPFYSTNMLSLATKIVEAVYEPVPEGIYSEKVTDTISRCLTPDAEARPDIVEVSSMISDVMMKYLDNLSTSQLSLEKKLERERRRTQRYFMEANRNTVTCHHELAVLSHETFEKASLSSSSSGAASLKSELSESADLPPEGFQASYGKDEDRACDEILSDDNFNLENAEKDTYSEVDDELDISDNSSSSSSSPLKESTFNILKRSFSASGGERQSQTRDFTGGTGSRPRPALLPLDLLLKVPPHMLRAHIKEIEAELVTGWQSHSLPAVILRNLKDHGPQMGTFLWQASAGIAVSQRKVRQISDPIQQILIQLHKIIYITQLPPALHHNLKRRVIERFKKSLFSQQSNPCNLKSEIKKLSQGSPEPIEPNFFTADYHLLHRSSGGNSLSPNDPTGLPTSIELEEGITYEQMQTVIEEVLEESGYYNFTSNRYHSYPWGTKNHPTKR

[21] = target: Phosphatidylinositol 4,5-bisphosphate 3-kinase catalytic subunit beta isoform (Homo sapiens) (UniProt P42338); assay: Inhibition of wild-type human partial length PIK3CB (P118 to S1070 residues) expressed in mammalian expression system at 10 uM by Kinomescan method relative to control
[22] = target: Serine/threonine-protein kinase PLK3 (Homo sapiens) (UniProt Q9H4B4); assay: Inhibition of wild-type human partial length PLK3 (A42 to L334 residues) expressed in mammalian expression system at 10 uM by Kinomescan method relative to control
[23] = target: Protein kinase C epsilon type (Homo sapiens) (UniProt Q02156); assay: Inhibition of wild-type human partial length PRKCE (A378 to P737 residues) expressed in mammalian expression system at 10 uM by Kinomescan method relative to control
[24] = target: Protein kinase C eta type (Homo sapiens) (UniProt P24723); assay: Inhibition of wild-type human partial length PRKCH (S324 to P683 residues) expressed in bacterial expression system at 10 uM by Kinomescan method relative to control
Sequence of Protein kinase C eta type (Homo sapiens) (P24723 whole entry, the tested form may be a part): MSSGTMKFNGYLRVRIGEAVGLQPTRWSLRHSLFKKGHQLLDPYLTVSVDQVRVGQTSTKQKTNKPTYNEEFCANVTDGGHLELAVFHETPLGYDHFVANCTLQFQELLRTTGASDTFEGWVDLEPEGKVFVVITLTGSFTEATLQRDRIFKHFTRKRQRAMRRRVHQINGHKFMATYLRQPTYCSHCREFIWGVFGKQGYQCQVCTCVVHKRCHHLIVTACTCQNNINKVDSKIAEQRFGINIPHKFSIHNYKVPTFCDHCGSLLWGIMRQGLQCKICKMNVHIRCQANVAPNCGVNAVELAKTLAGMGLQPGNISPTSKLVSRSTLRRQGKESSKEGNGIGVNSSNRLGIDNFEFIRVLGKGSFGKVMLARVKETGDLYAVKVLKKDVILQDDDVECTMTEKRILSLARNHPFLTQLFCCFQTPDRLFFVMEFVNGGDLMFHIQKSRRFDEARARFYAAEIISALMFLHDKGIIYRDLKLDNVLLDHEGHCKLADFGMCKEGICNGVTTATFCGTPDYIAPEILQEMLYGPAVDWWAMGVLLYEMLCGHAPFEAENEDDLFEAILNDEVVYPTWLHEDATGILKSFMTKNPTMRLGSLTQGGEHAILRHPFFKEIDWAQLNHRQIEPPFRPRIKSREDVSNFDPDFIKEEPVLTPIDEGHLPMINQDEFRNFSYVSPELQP

[25] = system: Proto-oncogene tyrosine-protein kinase receptor Ret (Homo sapiens), P07949 [V804L]; assay: Inhibition of human partial length RET V804L mutant (E713 to D1014 residues) expressed in bacterial expression system at 10 uM by Kinomescan method relative to control
[26] = target: Serine/threonine-protein kinase WNK1 (Homo sapiens) (UniProt Q9H4A3); assay: Inhibition of wild-type human partial length WNK1 (Q194 to A490 residues) expressed in mammalian expression system at 10 uM by Kinomescan method relative to control

## O=C(Nc1cccc([C@@H]2CN(c3ncnc4[nH]ccc34)CCN2CCO)c1)Nc1c(F)cccc1N1CCCC1
[1]
  inhibition: 100%
[2]
  inhibition: 99%
[3]
  inhibition: 64%
[4]
  inhibition: 74%
[5]
  inhibition: 100%
[6]
  inhibition: 9.6%
[7]
  inhibition: 100%
[8]
  inhibition: 94%
[9]
  inhibition: 100%
[10]
  inhibition: 100%
[11]
  inhibition: 82%
[12]
  inhibition: 74%
[13]
  inhibition: 91%

## O=C(Nc1cccc([C@H]2CCCN(c3ncnc4[nH]ccc34)C2)c1)Nc1ccccc1N1CCCC1
[14]
  inhibition: 95%
[15]
  inhibition: 99%
[16]
  inhibition: 67%
[17]
  inhibition: 97%
[18]
  inhibition: 100%
[19]
  inhibition: 83%
[20]
  inhibition: 4.3%
[21]
  inhibition: 94%
[22]
  inhibition: 65%
[23]
  inhibition: 59%
[24]
  inhibition: 71%
[25]
  inhibition: 0.1%
[26]
  inhibition: 72%
